Tests used:
[1] = test system: EGF-stimulated adult primary rat hepatocytes; assay: DNA synthesis ([methyl-3H]-thymidine incorporation) in EGF-stimulated hepatocytes; assay type: cell-based; settings: 72 hours; for dose-response of inhibition of DNA replication: increasing concentrations (4-Me2N-BAVAH 10-50 μM, AN-8 1-5 μM, DAC 1-500 μM)
Description: (§1) Hepatocytes (viability >80%) were isolated from male Sprague-Dawley rats by a two-step collagenase perfusion. Cells (0.4×10^5 cells/cm^2) were cultured in MEM/M199 (3:1, v/v), containing 1 mg/ml BSA, 5 μg/ml bovine insulin, 2 mM L-glutamine, antibiotics (7.3 IU/ml benzyl penicillin, 50 μg/ml streptomycin sulphate, 50 μg/ml kanamycin monosulphate and 10 μg/ml sodium ampicillin) and 10% (v/v) fetal calf serum.
(§2) After 4 h, medium was removed and serum-free medium, containing 0.5 μg/ml hydrocortisone and 50 μg/ml EGF, was added and renewed daily.
DAC was dissolved in PBS, 4-Me2N-BAVAH and AN-8 were dissolved in ethanol, to a concentration of 100 mM for DAC and 4-Me2N-BAVAH and 25 mM for AN-8.
(§3) 1) unstimulated cultures, referred to as “negative control” or “−EGF”, where hepatocytes are arrested at the mitogen-dependent R-point. 2) EGF-stimulated cultures, referred to as “positive control” or “+EGF”, in which EGF induces G1/S transition and mitosis. 3) EGF-stimulated cultures treated with DAC and/or in combination with 4-Me2N-BAVAH or AN-8.
DNA replication was measured as incorporation of radioactively labeled thymidine into newly synthesized DNA. Cells were incubated with [methyl-3H]-thymidine (25 Ci/mmol) for 24 hours and harvested at 72 hours in ice-cold PBS, the time point where DNA synthesis in untreated EGF-stimulated cultures is maximal. DNA was precipitated with 30% trichloroacetic acid (TCA) overnight at 4° C. After centrifugation, cells were washed once with 10% TCA and twice with 5% TCA. The pellet was solved in formic acid and radioactively labeled thymidine was measured by liquid scintillation counting.
From the moment of seeding, adult primary rat hepatocytes, stimulated with EGF 4 hours after plating and constantly thereafter, were exposed to different concentrations of 4-Me2N-BAVAH (10 μM, 15 μM, 20 μM, 25 μM and 50 μM), AN-8 (1 μM, 2.5 μM and 5 μM) or DAC (1 μM, 10 μM, 50 μM, 100 μM, 250 μM and 500 μM). [methyl-3H]-Thymidine incorporation was measured at 72 hours.
From the moment of seeding, adult primary rat hepatocytes, stimulated with EGF 4 hours after plating and constantly thereafter, were exposed to different combinations of 4-Me2N-BAVAH and DAC or AN-8 and DAC:
[methyl-3H]-Thymidine incorporation was measured at 72 hours.

[2] = test system: EGF-stimulated adult primary rat hepatocytes; assay: Albumin secretion into culture medium (ELISA); assay type: cell-based; settings: 48-72 hours of culture
Description: as §1, with “are” for “were”
After 4 h, medium was removed and serum-free medium, containing 0.5 μg/ml hydrocortisone and 50 μg/ml EGF, is added and renewed daily.
1) EGF-stimulated cultures, referred to as “positive control” or “control”. 2) EGF-stimulated cultures treated with DAC and/or in combination with 4-Me2N-BAVAH or AN-8.
Medium samples were analyzed for their albumin content by an enzyme-linked immunosorbent assay (ELISA) according to Dunn et al. 1991 (Biotechnol Prog 7(3): 237-245).
From the moment of seeding, adult primary rat hepatocytes, stimulated with EGF 4 hours after plating and constantly thereafter, were exposed to 50 μM 4-Me2N-BAVAH, 5 μM AN-8 or 500 μM DAC. Albumin secretion into the culture medium was measured between 48-72 hours of culture (FIG. 7A-C).
From the moment of seeding, adult primary rat hepatocytes, stimulated with EGF 4 hours after plating and constantly thereafter, were exposed to a combination of 25 μM 4-Me2N-BAVAH and 50 μM DAC. Albumin secretion into the culture medium is measured between 48-72 hours of culture (FIG. 8A).

[3] = test system: EGF-stimulated cultured hepatocytes; assay: Cell morphology by inverse light microscopy; assay type: cell-based, rat
Description: as §1, §2, §3
Cell morphology was analyzed by inverse light microscopy, using an Optiphot Nikon Phase Contrast microscope.

CYP1A1 = CYP1A1 protein expression (immunoblot); assay type: cell-based, rat; settings: increasing concentrations (DAC 1-500 μM, AN-8 1-5 μM); 72 h
Description: as §1, with “two step” for “two-step”, “serum. After 4 h, medium was removed and serum-free medium, containing 0.5 μg/ml hydrocortisone and 50 μg/ml EGF, was added and renewed daily. DAC was dissolved in PBS, whereas AN-8 was dissolved in ethanol to a concentration of 100 mM for DAC and 25 mM for AN-8.” for “serum.”
1) EGF-stimulated cultures, referred to as C. 2) EGF-stimulated cultures, exposed to 0.02% v/v ethanol, referred to as S. 3) EGF-stimulated cultures treated with DAC and/or AN-8.
At 72 h, cultured hepatocytes were harvested in ice-cold PBS. Cell pellets were lysed in homogenization buffer, sonicated and left for 1 hour on ice. After centrifugation, the protein concentration in the supernatant was determined. 50 μg proteins were separated by sodium dodecyl sulphate polyacrylamide gel electrophoresis (SDS-PAGE, 7.5%) and transferred to nitrocellulose membranes. Subsequently, membranes are immersed into Ponceau S to examine equal sample loading. […] Proteins were detected by using an enhanced chemiluminescence detection system. […]

hepatoma cell lines = settings: cited from earlier work
primary hepatocytes = settings: cited from earlier work

CN(C)c1ccc(C(=O)NCCCCC(=O)NO)cc1 [4-Me2N-BAVAH, 5-(4-dimethylaminobenzoyl)-aminovaleric acid hydroxamide]
inhibition of the DNA synthesis ([1]; 50 μM): complete inhibition | dose-response of inhibition of DNA replication [1]: clear dose-response relationship | increase in albumin secretion compared to control cultures ([2]; 50 μM): 2.4 fold

O=C(CCCCCNC(=O)c1ccc(N2CCCC2)cc1)NO [AN-8]
cell shape vs untreated control cultures with EGF alone ([3]; 5 μM): retained better the in vivo-like cuboidal shape | inhibition of proliferation (morphological appearance) vs untreated +EGF culture ([3]; 5 μM): clear inhibition of proliferation | CYP1A1 protein expression vs untreated hepatocyte cultures (CYP1A1): dose-dependent higher CYP1A1 protein expression | inhibition of the DNA synthesis ([1]; 5 μM): complete inhibition | dose-response of inhibition of DNA replication [1]: clear dose-response relationship | increase in albumin secretion compared to control cultures ([2]; 5 μM): 2.1 fold

Nc1ncn([C@H]2C[C@H](O)[C@@H](CO)O2)c(=O)n1 [DAC, 5-aza-2′-deoxycytidine]
cell shape vs untreated control cultures with EGF alone ([3]; 500 μM): retained better the in vivo-like cuboidal shape | inhibition of proliferation (morphological appearance) vs untreated +EGF culture ([3]; 500 μM): clear inhibition of proliferation | CYP1A1 protein expression vs untreated hepatocyte cultures (CYP1A1): dose-dependent higher CYP1A1 protein expression | inhibition of the DNA synthesis ([1]; 500 μM): complete inhibition | dose-response of inhibition of DNA replication [1]: clear dose-response relationship | increase in albumin secretion compared to control cultures ([2]; 500 μM): 1.8 fold

CCN(CC)Cc1ccc2cc(COC(=O)Nc3ccc(C(=O)NO)cc3)ccc2c1 [ITF2357]
apoptosis (hepatoma cell lines): induce apoptosis | apoptosis (primary hepatocytes): not

CC(/C=C/C(=O)NO)=C\[C@@H](C)C(=O)c1ccc(N(C)C)cc1 [TSA, Trichostatin A]
apoptosis (hepatoma cell lines): induce apoptosis | apoptosis (primary hepatocytes): not

CCCC(CCC)C(=O)O [valproate]
apoptosis (hepatoma cell lines): induce apoptosis | apoptosis (primary hepatocytes): not

Reference: patent US20100196929A1, “STABILISATION OF THE PHENOTYPIC PROPERTIES OF ISOLATED PRIMARY CELLS” (Vrije Universiteit Brussel, priority 2007, published 2010)
